From ChEMBL document CHEMBL1201862, “PubChem BioAssay data set” (2004)
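Cells were grown in 96-well plates and exposed to each compound for 48 hours at five concentrations; endpoints were interpolated linearly between bracketing concentrations, or set to the highest concentration if not reached. GI50 is the concentration that inhibits growth by half.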 Activity calls are given as the source filed them. Rule as the data show it: active = GI50 up to about 1.1 µM and inactive = higher.

How the values were obtained:
Assay in all cases: NCI anticancer screen, dose series, 48 h
[1] = test system: BT-549
[2] = test system: DLD-1
[3] = test system: DMS-114
[4] = test system: DMS-273
[5] = test system: HOP-18
[6] = test system: KM-20L2
[7] = test system: M19-MEL
[8] = test system: XF498
[9] = test system: RXF 631

Structure (SMILES)	GI50 [1]	GI50 [2]	GI50 [3]	GI50 [4]	GI50 [5]	GI50 [6]	GI50 [7]	GI50 [8]	GI50 [9]
COc1cccc2c1C(=O)c1c(O)c3c(c(O)c1C2=O)C[C@@](O)(/C(C)=N/NC(=O)c1ccccc1)C[C@@H]3OC1CC(N)C(O)C(C)O1 (some centres undefined)	0.304 µM (active)	1.69 µM (inactive)	0.202 µM (active)	0.157 µM (active)	0.454 µM (active)	0.807 µM (active)	0.302 µM (active)	0.0803 µM (active)	–
CC1=C(C(=O)Nc2ccc([N+](=O)[O-])cc2)C(c2ccccc2F)C(C(=O)Nc2ccc([N+](=O)[O-])cc2)=C(C)N1	–	8.45 µM (inactive)	5.07 µM (inactive)	–	–	12.3 µM (inactive)	14.2 µM (inactive)	1.48 µM (inactive)	21.3 µM (inactive)
c1ccc2c(c1)cc1n2CC2CN=NC12 (centres undefined)	–	> 100 µM (inactive)	–	> 100 µM (inactive)	–	> 100 µM (inactive)	> 100 µM (inactive)	–	> 100 µM (inactive)
CCC1CN2CCc3cc(OC)c(OC)cc3C2CC1CC1c2cc(OC)c(OC)cc2CCN1C(=O)CNC(=O)OC(C)(C)C (centres undefined)	–	4.67 µM (inactive)	3.8 µM (inactive)	12 µM (inactive)	23.3 µM (inactive)	5.08 µM (inactive)	16.3 µM (inactive)	7.53 µM (inactive)	30.3 µM (inactive)
O=C(c1ccccc1)n1cc(/C=C/[N+](=O)[O-])c2ccccc21	–	18.4 µM (inactive)	21.8 µM (inactive)	25.1 µM (inactive)	> 100 µM (inactive)	–	20.8 µM (inactive)	29.8 µM (inactive)	17.3 µM (inactive)
Nc1nc(SCCC/C=C/I)nc2c1ncn2C1OC(CO)C(O)C1O (centres undefined)	–	> 202 µM (inactive)	> 202 µM (inactive)	> 202 µM (inactive)	> 202 µM (inactive)	> 202 µM (inactive)	> 202 µM (inactive)	> 202 µM (inactive)	–
O=S(=O)(C/C(=N\O)c1ccccc1)c1ccccc1	–	> 100 µM (inactive)	–	> 100 µM (inactive)	> 100 µM (inactive)	> 100 µM (inactive)	> 100 µM (inactive)	59.3 µM (inactive)	> 100 µM (inactive)
CCC12CCCN(Cc3ccccc3)C1c1c(n(C)c3ccccc13)[C@H](C(=O)OC)C2 (some centres undefined)	–	> 239 µM (inactive)	226 µM (inactive)	> 239 µM (inactive)	–	120 µM (inactive)	130 µM (inactive)	201 µM (inactive)	> 239 µM (inactive)
CCOP(=O)(OCC)C1=NC=CC=CC1n1c(-c2ccccc2)nn(CC)c1=O (centres undefined)	–	> 100 µM (inactive)	> 100 µM (inactive)	> 100 µM (inactive)	> 100 µM (inactive)	> 100 µM (inactive)	> 100 µM (inactive)	–	> 100 µM (inactive)
C#Cc1c(C)c(/C=C/C(C)=C\C(=O)OC)n(C)c1C	–	45.4 µM (inactive)	19 µM (inactive)	> 100 µM (inactive)	> 100 µM (inactive)	46.6 µM (inactive)	> 100 µM (inactive)	> 100 µM (inactive)	–
O=C1OC(=O)c2c1c(-c1ccccc1)nc1ccccc21	–	> 100 µM (inactive)	> 100 µM (inactive)	> 100 µM (inactive)	–	> 100 µM (inactive)	> 100 µM (inactive)	> 100 µM (inactive)	> 100 µM (inactive)
COc1ccc(COC2CC(OC)OC(C)C2OC(=O)c2ccccc2)cc1 (centres undefined)	–	18.7 µM (inactive)	26 µM (inactive)	39.4 µM (inactive)	> 100 µM (inactive)	14.7 µM (inactive)	34.5 µM (inactive)	21.7 µM (inactive)	30.7 µM (inactive)
CC1(C)Oc2ccccc2[N+]([O-])=C1c1ccccc1	–	> 100 µM (inactive)	> 100 µM (inactive)	> 100 µM (inactive)	–	> 100 µM (inactive)	> 100 µM (inactive)	–	> 100 µM (inactive)
COC(=O)c1sc(=NC(=S)N2CCCCC2)sc1C(=O)OC	–	> 100 µM (inactive)	62.7 µM (inactive)	18.2 µM (inactive)	> 100 µM (inactive)	> 100 µM (inactive)	5.69 µM (inactive)	–	62.7 µM (inactive)
COC(=O)/C(C#N)=C1\CCC(OC)N1 (centres undefined)	–	> 100 µM (inactive)	> 100 µM (inactive)	> 100 µM (inactive)	> 100 µM (inactive)	> 100 µM (inactive)	> 100 µM (inactive)	> 100 µM (inactive)	–
COc1ccc2[nH]c3ccc4cc[n+](CCN5CCC(C6CCN(CC[n+]7ccc8ccc9[nH]c%10ccc(OC)cc%10c9c8c7)CC6)CC5)cc4c3c2c1	35.5 µM (inactive)	0.824 µM (active)	0.125 µM (active)	0.23 µM (active)	1.79 µM (inactive)	1.36 µM (inactive)	0.719 µM (active)	> 60.1 µM (inactive)	–
Cn1cc(C(=O)c2ccccc2)cc(C(=O)c2ccccc2)c1=O	–	> 100 µM (inactive)	> 100 µM (inactive)	> 100 µM (inactive)	–	> 100 µM (inactive)	> 100 µM (inactive)	> 100 µM (inactive)	> 100 µM (inactive)
